Results from ChEMBL document CHEMBL3826939, “Discovery of Piperazinylquinoline Derivatives as Novel Respiratory Syncytial Virus Fusion Inhibitors” (ACS Med Chem Lett, 2016).
The source made the active and inactive calls. No cut-off for these calls is given here.

Columns and labels:
[1] = Antiviral activity against Respiratory syncytial virus long A infected in human Hep2 cells assessed as reduction in virus-induced cytopathic effect measured after 6 days by CCK8 assay; type: functional, cell-based, Respiratory syncytial virus type A; conditions: HEp-2, 144 h
[2] = Cytotoxicity against human Hep2 cells measured after 6 days by CCK8 assay; type: cell-based, HEp-2
[3] = tested on: Respiratory syncytial virus; experiment: Antiviral activity against Respiratory syncytial virus long A infected in human Hep2 cells assessed as inhibition of viral replication measured after 3 days by plaque reduction assay; type: functional, organism-based; conditions: HEp-2, 72 h
[4] = Clearance in Wistar rat at […], iv by LC-MS/MS analysis; type: ADME, organism-based; conditions: in vivo
[5] = Oral availability in Wistar rat at […] by LC-MS/MS analysis; type: ADME, organism-based; conditions: in vivo
[6] = Half life in Wistar rat at […], iv by LC-MS/MS analysis; type: ADME, organism-based; conditions: in vivo
[7] = Intrinsic clearance in rat liver microsomes; type: ADME; conditions: read-out: CLH
[8] = Intrinsic clearance in human liver microsomes; type: ADME; conditions: read-out: CLH
[9] = Solubility of the compound by LYSA; type: physicochemical
[10] = tested on: Respiratory syncytial virus; experiment: Inhibition of Respiratory syncytial virus long A fusion protein expressed in human Flp-In T-REx-293 cells assessed as inhibition of cell-cell fusion at 0.1 to 100 nM measured after 3 days by microscopic analysis; type: cell-based
[11] = Permeability of the compound by PAMPA assay; type: ADME; conditions: read-out: permeability
[12] = Volume of distribution at steady state in Wistar rat at […], iv by LC-MS/MS analysis; type: ADME, organism-based; conditions: in vivo, read-out: Vdss
[13] = tested on: Respiratory syncytial virus; experiment: Inhibition of Respiratory syncytial virus long A fusion protein expressed in expressed in human Flp-In T-REx-293 cells assessed as inhibition of cell-cell fusion at 1 to 100 nM measured after 3 days by microscopic analysis; type: cell-based

Compound	EC50 [1] [nM]	CC50 at 144 h [2] [nM]	further results
CC(=O)NCCNc1cc(N2CCN(C(=O)C(C)(C)c3ccccc3)CC2)nc2ccccc12	15600	> 100000	
CC(=O)N1CCN(c2cc(NCCN)c3ccccc3n2)CC1	317	> 100000	
NCCNc1cc(N2CCN(C(=O)Cc3ccc(Cl)c(Cl)c3)CC2)nc2ccccc12	220	6680	
CC(C)(C(=O)N1CCN(c2cc(NCCN)c3cc(Cl)ccc3n2)CC1)c1ccccc1	99	20800	
COc1ccc(CC(=O)N2CCN(c3cc(NCCN)c4ccccc4n3)CC2)cc1	679	> 100000	
NCC(O)CNc1cc(N2CCC(c3ccccc3)CC2)nc2ccccc12 (stereo unspecified)	759	20800	
NCCNc1cc(N2CCN(C(=O)Cc3ccc(F)c(F)c3)CC2)nc2ccccc12	255	> 100000	
NCCNc1cc(N2CCN(C(=O)CCc3ccccc3)CC2)nc2ccccc12	464	> 100000	
NCCNc1cc(N2CCN(C(=O)Cc3cccc(Cl)c3)CC2)nc2ccccc12	66	> 100000	
NCCNc1cc(N2CCN(C(=O)c3ccccc3)CC2)nc2ccccc12	570	> 100000	
CS(=O)(=O)N1CCN(c2cc(NCCN)c3ccccc3n2)CC1	2270	> 100000	
CCC(=O)N1CCN(c2cc(NCCN)c3ccccc3n2)CC1	3090	> 100000	
NCCNc1cc(N2CCN(C(=O)Cc3ccc(Cl)cc3)CC2)nc2ccccc12	58	> 100000	
NCCNc1cc(N2CCN(C(=O)C3(c4ccccc4)CCC3)CC2)nc2ccccc12	86	> 100000	
COc1ccccc1CC(=O)N1CCN(c2cc(NCCN)c3ccccc3n2)CC1	56	> 100000	
Cc1ccc(CC(=O)N2CCN(c3cc(NCCN)c4ccccc4n3)CC2)cc1	142	> 100000	
N#Cc1cccc(CC(=O)N2CCN(c3cc(NCCN)c4ccccc4n3)CC2)c1	225	> 100000	
Cc1cccc(CC(=O)N2CCN(c3cc(NCCN)c4ccccc4n3)CC2)c1	59	> 100000	
NCCNc1cc(N2CCN(c3ccc(Cl)cc3)CC2)nc2ccccc12	> 100000	6600	
CC(C)(C(=O)N1CCN(c2cc(NCCN)c3ccccc3n2)CC1)c1ccccc1	28	> 100000	EC50 [3]: < 100 nM; clearance [4]: 222 mL/min/kg; bioavailability [5]: 57%; half-life [6]: 3 h; CLint scaled [7]: 16.6 mL/min/kg; CLint scaled [8]: 8.4 mL/min/kg; solubility [9]: > 400 µg/mL; inhibition [10]: Active; Papp [11]: 0.74 ×10⁻⁶ cm/s; Vd [12]: 36.9 L/kg
NCCNc1cc(N2CCN(C(=O)Cc3cccc(C(F)(F)F)c3)CC2)nc2ccccc12	563	> 100000	
Cc1ccccc1CC(=O)N1CCN(c2cc(NCCN)c3ccccc3n2)CC1	29	> 100000	
CC(C)CC(=O)N1CCN(c2cc(NCCN)c3ccccc3n2)CC1	1880	> 100000	

Compound	EC50 [1] [nM]	CC50 at 144 h [2] [nM]	further results
CC(C)(C(=O)N1CCN(c2cc(NCCN)c3ccc(Cl)cc3n2)CC1)c1ccccc1	2190	20900	
CNCCNc1cc(N2CCN(C(=O)C(C)(C)c3ccccc3)CC2)nc2ccccc12	33	> 100000	clearance [4]: 143 mL/min/kg; bioavailability [5]: 41%; half-life [6]: 7.3 h; CLint scaled [7]: 18 mL/min/kg; CLint scaled [8]: 5.7 mL/min/kg; solubility [9]: > 400 µg/mL; inhibition [13]: Active; Papp [11]: 1.37 ×10⁻⁶ cm/s; Vd [12]: 67.9 L/kg
CC(C)(C(=O)N1CCN(c2cc(NCCO)c3ccccc3n2)CC1)c1ccccc1	322	> 100000	
NCCNc1cc(N2CCN(c3ccccc3)CC2)nc2ccccc12	865	20800	
COc1cccc(CC(=O)N2CCN(c3cc(NCCN)c4ccccc4n3)CC2)c1	98	> 100000	
CC(C(=O)N1CCN(c2cc(NCCN)c3ccccc3n2)CC1)c1ccccc1 (stereo unspecified)	91	> 100000	
CCC(C(=O)N1CCN(c2cc(NCCN)c3ccccc3n2)CC1)c1ccccc1 (stereo unspecified)	556	> 100000	
NCCNc1cc(N2CCN(C(=O)Cc3ccccc3)CC2)nc2ccccc12	79	> 100000	
NCCNc1cc(N2CCN(C(=O)Cc3ccccc3Cl)CC2)nc2ccccc12	77	> 100000	
NCCNc1cc(N2CCN(C(=O)Cc3ccc(F)cc3)CC2)nc2ccccc12	95	> 100000	
NCCNc1cc(N2CCN(c3ccccc3Cl)CC2)nc2ccccc12	2010	20800	
CCC(CC)(C(=O)N1CCN(c2cc(NCCN)c3ccccc3n2)CC1)c1ccccc1	624	> 100000	
NCCNc1cc(N2CCN(C(=O)Cc3cc(F)cc(F)c3)CC2)nc2ccccc12	264	> 100000	
NCCNc1cc(N2CCN(c3cccc(Cl)c3)CC2)nc2ccccc12	977	6400	
NCCNc1cc(N2CCN(C(=O)C3CCCCC3)CC2)nc2ccccc12	9240	> 100000	
CN(C)CCNc1cc(N2CCN(C(=O)C(C)(C)c3ccccc3)CC2)nc2ccccc12	929	55200	
CC(C)C(=O)N1CCN(c2cc(NCCN)c3ccccc3n2)CC1	847	> 100000	
NCCNc1cc(N2CCN(S(=O)(=O)c3ccccc3)CC2)nc2ccccc12	1170	20500	
NCCNc1cc(N2CCN(C(=O)C3(c4ccccc4)CCCC3)CC2)nc2ccccc12	3820	> 100000	
NCCNc1cc(N2CCN(C(=O)C3(c4ccccc4)CC3)CC2)nc2ccccc12	17	> 100000	
CC(C)(C(=O)N1CCN(c2cc(NCCN)c3c(Cl)cccc3n2)CC1)c1ccccc1	7960	20800	
NCCNc1cc(N2CCN(C(=O)Cc3ccccc3F)CC2)nc2ccccc12	89	> 100000	
NCCNc1cc(N2CCN(C(=O)Cc3cccc(F)c3)CC2)nc2ccccc12	80	> 100000	
